Source: paper PMC11847391, “Synthesis and biological activities of 3-aminoimidazo[1,2-α]pyridine compounds” (BMC Chemistry, 2025)

Columns and labels:
Format in all cases: cell-based
[1] = test system: MCF-7 human breast cancer cell line; experiment: Cytotoxicity, Trypan blue exclusion test, MCF-7; conditions: for IC50: MCF-7, 24 h, Trypan blue exclusion, mean ± SD of two independent experiments
Procedure: (§1) The synthesized compounds were assessed for their cytotoxic effects on three different cancer cell lines: the MCF-7 human breast cancer cell line (ATCC number: HTB-22), the HT-29 human colorectal adenocarcinoma cell line [HTB-38; American Type Culture Collection (ATCC), Manassas, VA, USA], and the B16F10 murine melanoma cancer cell line [CRL-6475; American Type Culture Collection (ATCC), Manassas, VA, USA], as well as the normal cell line mouse Embryonic Fibroblast-1 cell line (MEF-1; ATCC CRL-2214). The cell line was cultivated in high-glucose Dulbecco’s Modified Eagle Medium (DMEM) that is supplemented with L-glutamine, phenol red (Fuji Film Wako, Osaka, Japan), 10% fetal bovine serum (FBS; G.E. Healthcare, Chicago, IL, USA), and 1% penicillin/streptomycin (P/S) (Nacalai Tesque, Kyoto, Japan). Exponentially growing cells (1 × 10^5 cells/well) were seeded in a 24-well plate with sterile-filtered DMEM medium at 37 °C under 5% CO2 and incubated overnight. The cells were then treated with different concentrations of test compounds (5, 10, 50, and 100 µg/mL) and incubated for 24 h in a humidified atmosphere. After 24 h of incubation, viable cells were counted in each well using the Trypan blue exclusion test. All compounds were initially dissolved in DMSO, and the final concentration of DMSO was less than 1% in all of the considered concentrations of the applied compounds. The IC50 values from at least two independent experiments were compared with the control and expressed as the mean ± SD. The analysis of two groups was performed using the student t-test, and P-values < 0.05 were statistically significant.

[2] = test system: B16F10 murine melanoma cancer cell line; experiment: Cytotoxicity, Trypan blue exclusion test, B16F10; conditions: for IC50: B16F10, 24 h, Trypan blue exclusion, mean ± SD of two independent experiments
Procedure: as §1

[3] = test system: HT-29 human colorectal adenocarcinoma cell line; experiment: Cytotoxicity, Trypan blue exclusion test, HT-29; conditions: for IC50: HT-29, 24 h, Trypan blue exclusion, mean ± SD of two independent experiments
Procedure: as §1

[4] = test system: mouse Embryonic Fibroblast-1 cell line (MEF-1); experiment: Cytotoxicity, Trypan blue exclusion test, normal MEF cells; conditions: normal cell line MEF, 24 h, Trypan blue exclusion, mean ± SD of two independent experiments
Procedure: as §1

SMILES	IC50 [1] [µM]	IC50 [2] [µM]	IC50 [3] [µM]	IC50 [4] [µM]	Cytotoxicity against MCF-7 (in words) ([1]; MCF-7)	Cytotoxicity against B16F10 (in words) ([2]; B16F10)	Cytotoxicity against HT-29 (in words) ([3]; HT-29)
COc1ccc(-c2nc3ccccn3c2Nc2ccc(Cl)cc2)c(OC)c1OC [C00001]	> 200	> 200	> 200	> 200			
COc1ccc(-c2nc3ccccn3c2Nc2ccc(Cl)cc2)cc1OCc1ccccc1 [C00002]	> 200	> 200	> 200	18.5 ± 0.33			
Clc1ccc(Nc2c(-c3c[nH]c4ccccc34)nc3ccccn23)cc1 [C00003]	20.47 ± 0.1	39.2 ± 1.84	18.3 ± 1.22	1.84 ± 0.83			
Clc1ccc(Nc2c(-c3ccco3)nc3ccccn23)cc1 [C00005]	66.5 ± 37.9	197 ± 14.4	48.3 ± 0.53	32.93 ± 0.09			
Cc1cccc(-c2nc3ccccn3c2Nc2ccc(Cl)cc2)c1 [C00006]	195 ± 19.9						
COc1cccc(-c2nc3ccccn3c2Nc2ccc(Cl)cc2)c1OC [C00007]	> 200	> 200	> 200	> 200			
Clc1ccc(Nc2c(-c3ccc4ccccc4c3)nc3ccccn23)cc1 [C00008]		> 200		> 200			
Clc1ccc(Nc2c(-c3ccsc3)nc3ccccn23)cc1 [C00009]	> 200	> 200	> 200	> 200			
Fc1ccc(-c2nc3ccccn3c2Nc2ccc(Cl)cc2)c(F)c1 [C00010]		14.39 ± 0.04	10.1 ± 0.7	16.31 ± 0.08			
FC(F)(F)c1ccc(-c2nc3ccccn3c2Nc2ccc(Cl)cc2)cc1 [C00011]	> 200	195 ± 15.3	85.5 ± 18.8	63.9 ± 2.33			
COc1ccc(-c2nc3ccccn3c2Nc2ccc(Cl)cc2)c(OC)c1OC [Compound 9, N-(4-chlorophenyl)−2-(2,3,4-trimethoxyphenyl)imidazo[1,2-a]pyridin-3-amine]					ineffective	ineffective	ineffective
